Measured values published in patent US20070254899A1, “Soluble salts of thieno[2,3-d]pyrimidine derivatives” (Dynogen Pharmaceuticals, Inc., priority 2006, published 2007).
Several values for one entry are separate records, joined by “and”; a condition that tells them apart may be missing. Equal values may be shown once. Where a name gives a salt, the structure may show the parent alone.

Columns and labels:
[1] = Procedure: The suspension was then equilibrated at 25° C. for 24 hours followed by a pH check and filtration through a glass fibre C 96 well plate. […] HPLC using a generic 5 minute method was used to quantify the amount of sample in solution with reference to a standard dissolved in DMSO at 0.1 mg/ml. Various volumes of the standard, diluted and undiluted tests were injected. […] If sufficient solid remained in the filter plate the XRPD was normally checked for phase changes, hydrate formation, amorphization, crystallization and other changes.
[2] = GVS (gravimetric vapour sorption), single cycle; assay type: physicochemical
Procedure: (§1) Form I was characterized by pKa, LogP, LogPion and LogD determination and prediction, XRPD before and after storage at 40° C./75% RH for 4 weeks, PLM, DSC and TGA, ^1HNMR, solubility in water with pH measurement, HPLC purity before and after storage at 40° C./75% RH for 4 weeks, water content, GVS with XRPD and purity analysis after measurement, and VT-XRPD.
This weight increase was not associated with any significant hysteresis between the adsorption and desorption cycles.

[3] = assay type: physicochemical
Procedure: as §1
As expected from the predicted values, the compound is suitable for a mono salt screen and should form strong stable salts.

[4] = Storage at 40° C./75% RH (XRPD, HPLC purity, colour); assay type: physicochemical
[5] = assay type: physicochemical; remark: listed apart in the source
Procedure: as §1
LogP, LogPion and LogD values were measured by using different ratios of 0.1 5M KCl(Aq) to 1-octanol, with refinement of a multiset of the data. The measured LogP, 3.96, is in good agreement with the predicted values.

[6] = system: rats; assay: Small Intestinal Transit Rodent Model (charcoal meal); assay type: in vivo, rat; details: for Small intestinal transit, Mean (% of total small intestinal length): 15-min test period
Procedure: Following an overnight fast, rats were brought to the laboratory in their home cages and received an i.p. injection of one of the following: […] Control rats received no treatment. The treated rats were placed back in the home cages and after 30 min, were fed a 2 mL charcoal meal via an oral gavage. Small intestinal transit was measured following 15 min test-period. Each rat was placed briefly in a glass chamber with IsoFlo for anesthesia and sacrificed. The stomach and the small intestine were removed and the total length of the small intestine was measured. Transit was then measured as the distance that the charcoal meal had traveled along the small intestine and expressed as % of the total length. Animals were randomly assigned to experimental groups and experiments were performed as illustrated in Table 3. Ondansetron was supplied from APIN Chemicals LTD. […] MCI-225 was provided by Mitsubishi Pharma Corp. All drugs were dissolved in a vehicle of 100% propylene glycol (1,2-Propanediol) by sonicating for 10 min. Propylene glycol was obtained from Sigma Chemical Co. Ondansetron, a 5-HT3-receptor antagonist was dosed i.p. at 1, 5, and 10 mg/kg. […] All doses were delivered in a final volume of 200 μL. Animals in the vehicle control group received 200 μL of 100% Propylene glycol and animals in the normal control group were untreated. Small intestinal transit in rats was investigated by the passage of a charcoal meal along the small intestine during a defined time period (15-min). The animals were deprived of food for 12-16 hrs prior to the experiments. Rats were given a charcoal meal (a mixture of charcoal, gum arabic, and distilled water) as a 2 mL oral gavage and were sacrificed after a 15-min test period. The distance traveled by the charcoal meal was quantified as a percent of the small intestinal length, using the following equation: Transit (%)=cm traveled by meal/cm total small intestinal length×100 […] Statistical analysis was performed to determine mean, standard error to the mean and standard deviation for each group (See Table 3). Differences between individual dose groups within treatments and comparisons between drug-treated and vehicle-treated groups were determined using an unpaired t test considering that when % is used as a relative unit, t-statistic is relevant. In all cases p<0.05 was considered statistically significant.

[7] = system: ferrets; assay: Cisplatin-induced emesis in the ferret; assay type: in vivo, Mustela putario furo
Procedure: The ability of MCI-225 to reduce retching and vomiting in an accepted model of cytotoxin-induced emesis in the ferret was assessed. Specifically, the experiments described herein investigated the effect of MCI-225 on retching and vomiting induced by cisplatin. Ondansetron was used as a positive control in the model, in view of its known antiemetic activity. Adult male ferrets (Mustela putario furo) weighing 1200-1880 g were purchased from Triple F Farms (Sayre, Pa.) and housed in individual cages at standardized conditions (12:12 h light/dark cycle and 21-23° C.). Prior to the experiments, the ferrets were allowed a 7-10 day acclimatization period to the animal facility. The ferrets were fed a carnivore diet with free access to food and water throughout the course of the study. The use of the ferret model of emesis and the drug treatment were preapproved in accordance with facility standards. A cisplatin solution was prepared by adding preheated (70° C.) saline to cisplatin powder (Sigma-Aldrich Co.) and stirring or sonicating at 40° C. until dissolved. Following administration of the cisplatin and either MCI-225, ondansetron or vehicle alone, the occurrence of retching and vomiting was monitored for a period of 6 hours. Retching was defined as the number of forceful rhythmic contractions of the abdomen occurring with the animal in characteristic posture, but not resulting in the expulsion of upper gastrointestinal tract contents (Watson et al., British Journal of Pharmacology, 115(1): 84-94 (1994)). Vomiting was defined as the forceful oral expulsion of upper gastrointestinal contents. The latency of the retching or vomiting response and the number of episodes were recorded for each animal and summarized for each experimental group (Wright et al., Infect. Immun., 68(4): 2386-9 (2000)). Following one hour of acclimation to the observation cage, ferrets received an intraperitoneal (i.p.) injection of cisplatin (5 mg/kg in 5 mL) followed in about 2 minutes by i.p. injection of a single dose of MCI-225 or ondansetron (Rudd and Naylor, Eur. J. Pharmacol., 322: 79-82 (1997)). Dose-response effects of MCI-225 dosed at 1, 10 and 30 mg/kg i.p. in a 0.5 mL/kg solution or ondansetron dosed at 5 and 10 mg/kg i.p. in a 0.5 mL/kg solution were studied. Each animal received a single-dose drug treatment. In addition, three animals received an initial dose (30 mg/kg i.p.) and a second MCI-225 injection (30 mg/kg i.p.) 180 minutes following the initial dose. […] All groups were randomized.

[8] = system: rats; assay: Visceromotor response to colorectal distension, acetic acid-induced colonic hypersensitivity; assay type: in vivo, rat; details: for Visceromotor response (number of abdominal contractions) to colorectal distension vs vehicle: all doses tested i.p. (ondansetron 1, 5, 10; nisoxetine 3, 10, 30 mg/kg)
Procedure: A 10 min recovery was allowed between distensions.
Adult male rats were used in the study.
Ten minute recovery periods were allowed following each distension.
Statistical significance of the treatment groups was assessed using one-way ANOVA followed by Tukey post-test. […] (*) p<0.05, (**) p<0.01, (***) p<0.001

[9] = system: rats; assay: Water avoidance stress (WAS) model of increased colonic transit, fecal pellet output; assay type: in vivo, rat; details: for WAS-induced fecal pellet output in 1 hour: all doses tested i.p. (MCI-225, nisoxetine 3, 10, 30; ondansetron 1, 5, 10 mg/kg)
Procedure: Ondansetron (5-HT3 receptor antagonist), nisoxetine (NARI) and a combination of ondansetron and nisoxetine were used as comparison compounds. The model provides a method of evaluating the effectiveness of a compound in a specific patient group of IBS sufferers where stress induced colonic motility is considered a significant contributing factor.
Fecal pellet output was measured by counting the total number of fecal pellets produced during 1 hour of WAS.
All rats underwent sham stress (I-hour in stress chamber without water) for 2-4 consecutive days before undergoing WAS (sham was performed until rats produced 0-1 pellet per hour for 2 consecutive days). At the end of the 1-hour stress period, the fecal pellets were counted and recorded.
WAS causes an acceleration of colonic transit, which can be quantified by counting the number of fecal pellets, produced during the stress procedure. Rats were placed for 1-hour into a stress chamber onto a raised platform 7.5 cm×7.5 cm×9 cm (L×W×H) in the center of a stress chamber filled with room temperature water 8 cm in depth.
Control drugs for this study were ondansetron and nisoxetine. Ondansetron was supplied from APIN Chemicals LTD. Nisoxetine was supplied by Tocris. […] All drugs and the vehicle were administered as an i.p. injection in a volume of 0.2 mL.
Statistical significance was assessed using one-way ANOVA followed by Tukey post-test. Statistical differences were compared between the WAS groups and the sham stress group and was considered significant if p<0.05. (*) p<0.05, (**) p<0.01, (***) p<0.001

[10] = 30 mg/kg b.i.d, i.p., 180-min interval

Compound: 4-(2-fluorophenyl)-6-methyl-2-(piperazin-1-yl)thieno[2,3-d] pyrimidine hydrochloride [MCI-225]
- Aqueous solubility [1]: 2100 µg/mL
- Aqueous solubility, equivalent as the free base [1]: 1700 µg/mL
- pH after solubility equilibration [1]: 6.33
- GVS total weight increase ([2]; between 0 and 90% RH): 5.0%
- GVS weight increase ([2]; between 20% and 30% RH, equivalent to 1.0 moles of water): about 4.8%
- pKa (basic) [3]: 8.64
- pKa of second basic centre [3]: 0.81
- Appearance of material surface after storage ([4]; 4 weeks at 40° C./75% RH, ambient light): gone yellow
- HPLC purity after storage ([4]; 4 weeks at 40° C./75% RH, ambient light, initial purity 100%): 99.0%
- XRPD pattern after storage ([4]; 40° C./75% RH, four weeks): unchanged
- LogP [5]: 3.96
- LogPion [5]: 1.41
- LogD ([5]; pH 7.4): 2.72

Compound: Cc1cc2c(-c3ccccc3F)nc(N3CCNCC3)nc2s1 [MCI-225, 4-(2-fluorophenyl)-6-methyl-2-(piperazin-1-yl)thieno[2,3-d] pyrimidine hydrochloride]
- Small intestinal transit, Mean (% of total small intestinal length) ([6]; 3 mg/kg i.p.): 30.1%
- Small intestinal transit, Mean (% of total small intestinal length) ([6]; 10 mg/kg i.p., hydrochloride): 4.2±2.6% and 4.2%
- Small intestinal transit, Mean (% of total small intestinal length) ([6]; 30 mg/kg i.p.): 8.8%
- Latency ([7]; 1 mg/kg i.p.): 186 ± 35 min
- Retches (360 min) ([7]; 1 mg/kg i.p.): 30.4 ± 9.1
- Total Events ([7]; 1 mg/kg i.p.): 32.9 ± 9.8
- Vomits (360 min) ([7]; 1 mg/kg i.p.): 2.5 ± 0.7
- Latency ([7]; 10 mg/kg i.p.): 192 ± 57 min
- Retches (360 min) ([7]; 10 mg/kg i.p.): 22.9 ± 10.3
- Total Events ([7]; 10 mg/kg i.p.): 25.5 ± 11.1
- Vomits (360 min) ([7]; 10 mg/kg i.p.): 2.6 ± 1.0
- Latency [7, 10]: 360 ± 0 min
- Retches (360 min) [7, 10]: 0.0 ± 0.0
- Total Events [7, 10]: 0.0 ± 0.0
- Vomits (360 min) [7, 10]: 0.0 ± 0.0
- Latency ([7]; 30 mg/kg i.p.): 287 ± 38 min
- Retches (360 min) ([7]; 30 mg/kg i.p.): 3.3 ± 2.2
- Total Events ([7]; 30 mg/kg i.p.): 4.0 ± 2.6
- Vomits (360 min) ([7]; 30 mg/kg i.p.): 0.7 ± 0.5
- Animals in which the visceromotor response to CRD was eliminated ([8]; 30 mg/kg i.p., acetic acid sensitized rats): 50 % of the animals

Compound: CNCCC(Oc1ccccc1OC)c1ccccc1 (centres unmarked) [Nisoxetine]
- Animals with charcoal meal completely retained in the stomach ([6]; 30 mg/kg i.p.): 4 out of 5
- Small intestinal transit ([6]; 30 mg/kg i.p.): almost completely inhibited the transit
- Small intestinal transit ([6]; 3 or 10 mg/kg i.p.): tendency to decrease small intestinal transit
- Behavior in the home cage during the experiments ([8]; 30 mg/kg i.p.): increased exploratory behavior
- Visceromotor response (number of abdominal contractions) to colorectal distension vs vehicle [8]: no significant effect
- Fecal pellets produced during WAS vs vehicle treated group ([9]; 10 and 30 mg/kg i.p.): significantly fewer fecal pellet produced
- WAS-induced fecal pellet output in 1 hour [9]: reduced by all doses

Compound: Cc1nccn1CC1CCc2c(c3ccccc3n2C)C1=O (centres unmarked) [Ondansetron]
- Small intestinal transit vs vehicle ([6]; all doses tested i.p. (MCI-225 3, 10, 30; ondansetron 1, 5, 10 mg/kg)): significant reduction in small intestinal transit
- Latency of the emetic response following cisplatin ([7]; all doses tested i.p.): increase in the latency
- Emetic events (retches and vomits) induced by cisplatin ([7]; all doses tested i.p. (ondansetron 5, 10; MCI-225 1, 10, 30 mg/kg)): dose-dependently reduced the number of emetic events
- Visceromotor responses at moderate and high intraluminal pressure ([8]; 10 mg/kg i.p., 30 and 60 mmHg): did not abolish the responses
- Behavioral activity of the rats ([8]; 1, 5 or 10 mg/kg i.p.): No significant changes in the behavioral activity
- Visceromotor response (number of abdominal contractions) to colorectal distension vs vehicle [8]: dose-dependent decrease in the number of abdominal contractions
- WAS-induced fecal pellet output in 1 hour [9]: dose-dependent inhibition
